In PubChem BioAssay AID2060889 (Molecular Pharmacology Branch, DTP, NCI, 2025):
pIC50: −log10 of the molar value. One block for each compound: values may come before it.

Test system: LG0567-F671-PDC complex spheroids viability
Assay: Anticancer human tumor LG0567-F671-PDC patient-derived lung adenocarcinoma cell line growth inhibition [RAS]
Conditions: for viability, T/C: stronger effect = lower value
From the text: RAS pathway inhibitors in Combinations in Complex Spheroids
A high-throughput screen of multi-cell type tumor spheroids was designed to identify active combinations of RAS pathway inhibitors and targeted small molecules. Complex spheroids include a stromal component modeled by human endothelial cells (HUVEC) and fibroblasts modeled by human mesenchymal stem cells (MSCs). The concentration ranges selected for each drug and investigational agent were based upon clinically achievable concentrations if the clinical Cmax of the agent was known.
Compounds. The drugs and investigational agents: abemaciclib (NSC768073), cobimetinib (NSC768068), divarasib (GDC6063, NSC841802), docetaxel (NSC628503), GDC-1971 (RLY-1971, NSC841576), gemcitabine (NSC613327), inavolisib (NSC800729), ipatasertib (NSC767898), KB-0742 (NSC834161), MRTX-1133 (NSC836407), osimertinib (NSC779217), RMC-4630 (NSC839698), RMC-6236 (NSC851965), RMC-6291 (NSC852671), Ro-3306 (NSC812927), sapanisertib (NSC764658), SN-38 (NSC673596), staurosporine (NSC755774), SY5609 (NSC837396), and tovorafenib (DAY101, NSC766906), were obtained from the National Cancer Institute (NCI) Developmental Therapeutics Program Chemical Repository. The FDA-approved anticancer drug set is available from the NCI Developmental Therapeutics Program. […] The stock solutions were prepared in dimethyl sulfoxide (DMSO, Sigma-Aldrich, St. Louis, MO, cat. D2650) at 800-fold the tested concentration and stored at -70 degrees C prior to their use. All drugs and investigational agents were tested over a range starting from a high concentration at or near the clinical Cmax and decreasing in half-log increments. If the clinical Cmax for an agent had not been determined, the highest concentration tested was 10 microM.
Cell Culture. All cells were maintained in an incubator at 37 degrees C and 5% CO2 with 95% humidity. The PDC lines were cultured according to standard operating procedures established by the NCI PDMR. All PDCs were thawed and cultured in Matrigel-coated flasks prepared with a working solution of 1X Ham's F-12 nutrient mix, without supplementation (Invitrogen, Waltham, MA, cat. 11765054), 100 U/mL penicillin-streptomycin (Invitrogen, cat. 15140122), and 2.5% Matrigel (Corning Inc., Corning, NY, cat. 354248) for the first three passages. The 362531-283-R-J2-PDC and 782815-120-R-J1-PDC lines were cultured in 6C/Colon 1B media, which includes advanced DMEM/F-12 (Thermo Fisher Scientific, cat. 12634028), 10 mM HEPES (Thermo Fisher Scientific, cat. 15630080), 1X GlutaMAX supplement (Thermo Fisher Scientific, cat. 35050061), 0.1 mg/mL primocin (InvivoGen, San Diego, CA, cat. ant-pm-2), 10% defined fetal bovine serum, heat inactivated (HyClone Laboratories Inc., Logan, UT, cat. SH30070.03HI), 50% L-WRN conditioned media (ATCC, cat. CRL-3276), 1.25 mM N-Acetyl-L-cysteine (Sigma-Aldrich, cat. A9165), 10 mM nicotinamide (Sigma-Aldrich, cat. N0636), 1X B-27 supplement (Thermo Fisher Scientific, cat. 17504044), 1X N-2 supplement (Thermo Fisher Scientific, cat. 17502048), 50 ng/mL human EGF (Thermo Fisher Scientific, cat. PHG0311), and 10 microM Y-27632 dihydrochloride (Tocris Bioscience, cat. 1254). The K12877-001-R-J1-PDC line was cultured in 6I media, which includes all 6C/Colon 1B media plus 10 ng/mL human FGF-10 (PeproTech, cat. 100-26), 1 ng/mL human FGF-2 (PeproTech, cat. 100-18B), 1 µM prostaglandin E2 (Tocris Bioscience, cat. 2296), […] hydrocortisone (Sigma-Aldrich, cat. H4001), and […] bovine insulin (Sigma-Aldrich, cat. I6634). The K86415-001-R-J1-PDC line was cultured in 6D media, which includes all 6C/Colon 1B media components minus the L-WRN conditioned media. The 485176-168-R4-J1-PDC was cultured in PANC media, which includes all 6C/Colon 1B media plus 100 ng/mL human FGF-10 (PeproTech, cat. 100-26), 500 nM SB-431542 (Selleckchem, cat. S1067), and 10 nM gastrin (Tocris Bioscience, cat. 3006). […]

[1] = curve of first compound, second compound 0.0316 µM
[2] = curve of first compound, second compound 0.1 µM
[3] = curve of first compound, second compound 0.316 µM
[4] = curve of first compound, second compound 1 µM
[5] = second compound 0.0316 µM, first compound 0.0316 µM
[6] = second compound 0.0316 µM, first compound 0.1 µM
[7] = second compound 0.0316 µM, first compound 0.316 µM
[8] = second compound 0.0316 µM, first compound 1 µM
[9] = second compound 0.0316 µM, first compound 3.16 µM
[10] = second compound 0.0316 µM, first compound 10 µM
[11] = second compound 0.1 µM, first compound 0.0316 µM
[12] = second compound 0.1 µM, first compound 0.1 µM
[13] = second compound 0.1 µM, first compound 0.316 µM
[14] = second compound 0.1 µM, first compound 1 µM
[15] = second compound 0.1 µM, first compound 3.16 µM
[16] = second compound 0.1 µM, first compound 10 µM
[17] = second compound 0.316 µM, first compound 0.0316 µM
[18] = second compound 0.316 µM, first compound 0.1 µM
[19] = second compound 0.316 µM, first compound 0.316 µM
[20] = second compound 0.316 µM, first compound 1 µM
[21] = second compound 0.316 µM, first compound 3.16 µM
[22] = second compound 0.316 µM, first compound 10 µM
[23] = second compound 1 µM, first compound 0.0316 µM
[24] = second compound 1 µM, first compound 0.1 µM
[25] = second compound 1 µM, first compound 0.316 µM
[26] = second compound 1 µM, first compound 1 µM
[27] = second compound 1 µM, first compound 3.16 µM
[28] = second compound 1 µM, first compound 10 µM
[29] = curve of first compound, second compound 0.00316 µM
[30] = curve of first compound, second compound 0.01 µM
[31] = second compound 0.00316 µM, first compound 0.0316 µM
[32] = second compound 0.00316 µM, first compound 0.1 µM
[33] = second compound 0.00316 µM, first compound 0.316 µM
[34] = second compound 0.00316 µM, first compound 1 µM
[35] = second compound 0.00316 µM, first compound 3.16 µM
[36] = second compound 0.00316 µM, first compound 10 µM
[37] = second compound 0.01 µM, first compound 0.0316 µM
[38] = second compound 0.01 µM, first compound 0.1 µM
[39] = second compound 0.01 µM, first compound 0.316 µM
[40] = second compound 0.01 µM, first compound 1 µM
[41] = second compound 0.01 µM, first compound 3.16 µM
[42] = second compound 0.01 µM, first compound 10 µM
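Note: spheroids exposed to compound for seven days before readout.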
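Throughout, for pIC50: luminescence signal used as a proxy for viable cells.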

pIC50 [1]: 5.23
pIC50 [2]: 5.21
pIC50 [3]: 5.47
pIC50 [4]: > 7.50
pIC50 (curve of first compound, second compound 3.16 µM): > 7.50
pIC50 (curve of first compound, second compound 10 µM): > 7.50
Compound: CC1(O)CCCC1n1c(=O)c(C(F)F)cc2cnc(NC3CCN(S(C)(=O)=O)CC3)nc21 (configuration not stated) + C#Cc1c(F)ccc2cc(O)cc(-c3ncc4c(N5CC6CCC(C5)N6)nc(OCC56CCCN5CC(F)C6)nc4c3F)c12
viability, T/C [5]: 85.5%
viability, T/C [6]: 68.3%
viability, T/C [7]: 77.8%
viability, T/C [8]: 85.4%
viability, T/C [9]: 78.9%
viability, T/C [10]: 24.9%
viability, T/C [11]: 72.2%
viability, T/C [12]: 59.1%
viability, T/C [13]: 75.2%
viability, T/C [14]: 81.6%
viability, T/C [15]: 76.9%
viability, T/C [16]: 33.1%
viability, T/C [17]: 56.1%
viability, T/C [18]: 56.2%
viability, T/C [19]: 62.7%
viability, T/C [20]: 54.5%
viability, T/C [21]: 71.1%
viability, T/C [22]: 27.5%
viability, T/C [23]: 33.1%
viability, T/C [24]: 36.8%
viability, T/C [25]: 45.6%
viability, T/C [26]: 40%
viability, T/C [27]: 40.6%
viability, T/C [28]: 18.3%
viability, T/C (second compound 3.16 µM, first compound 0.0316 µM): 17.3%
viability, T/C (second compound 3.16 µM, first compound 0.1 µM): 23.6%
viability, T/C (second compound 3.16 µM, first compound 0.316 µM): 25.2%
viability, T/C (second compound 3.16 µM, first compound 1 µM): 29.3%
viability, T/C (second compound 3.16 µM, first compound 3.16 µM): 23.3%
viability, T/C (second compound 3.16 µM, first compound 10 µM): 14.6%
viability, T/C (second compound 10 µM, first compound 0.0316 µM): 14.2%
viability, T/C (second compound 10 µM, first compound 0.1 µM): 15.3%
viability, T/C (second compound 10 µM, first compound 0.316 µM): 17.8%
viability, T/C (second compound 10 µM, first compound 1 µM): 18.5%
viability, T/C (second compound 10 µM, first compound 3.16 µM): 14.7%
viability, T/C (second compound 10 µM, first compound 10 µM): 8.46%

pIC50 (curve of compound): < 5.00
Compound: CC(C)NCC(C(=O)N1CCN(c2ncnc3c2C(C)CC3O)CC1)c1ccc(Cl)cc1 (configuration not stated)
viability, T/C (compound 0.0316 µM): 101% [middle of 4 runs]
viability, T/C (compound 0.1 µM): 91.3% [middle of 4 runs]
viability, T/C (compound 0.316 µM): 77.4% [middle of 4 runs]
viability, T/C (compound 1 µM): 61.6% [middle of 4 runs]
viability, T/C (compound 10 µM): 63.5% [middle of 4 runs]

pIC50 [29]: > 7.50
pIC50 [30]: > 7.50
pIC50 [1]: > 7.50
pIC50 [2]: > 7.50
pIC50 [3]: > 7.50
pIC50 [4]: > 7.50
Compound: CCC(CC)c1cc(NC2CCC(N)C2)n2nccc2n1 (configuration not stated) + C=CC(=O)N1CCN(c2nc(OCC3CCCN3C)nc3c(F)c(-c4nc(N)cc(C)c4C(F)(F)F)c(Cl)cc23)C(C)C1
viability, T/C [31]: 18.7%
viability, T/C [32]: 16.5%
viability, T/C [33]: 17.8%
viability, T/C [34]: 15.8%
viability, T/C [35]: 3.58%
viability, T/C [36]: 0.33%
viability, T/C [37]: 12.8%
viability, T/C [38]: 13.4%
viability, T/C [39]: 15.6%
viability, T/C [40]: 12.7%
viability, T/C [41]: 3.96%
viability, T/C [42]: 0.45%
viability, T/C [5]: 11.5%
viability, T/C [6]: 11.6%
viability, T/C [7]: 12.2%
viability, T/C [8]: 11.2%
viability, T/C [9]: 3.67%
viability, T/C [10]: 0.43%
viability, T/C [11]: 11.6%
viability, T/C [12]: 16.4%
viability, T/C [13]: 12.2%
viability, T/C [14]: 10.4%
viability, T/C [15]: 3.67%
viability, T/C [16]: 0.68%
viability, T/C [17]: 11.4%
viability, T/C [18]: 11.2%
viability, T/C [19]: 12.8%
viability, T/C [20]: 11.4%
viability, T/C [21]: 4.66%
viability, T/C [22]: 0.75%
viability, T/C [23]: 14.2%
viability, T/C [24]: 14.3%
viability, T/C [25]: 14.3%
viability, T/C [26]: 12.2%
viability, T/C [27]: 4.35%
viability, T/C [28]: 0.62%

pIC50 [29]: > 7.50
pIC50 [30]: > 7.50
pIC50 [1]: > 7.50
pIC50 [2]: > 7.50
pIC50 [3]: > 7.50
pIC50 [4]: > 7.50
Compound: C[C@@H](NC(=O)c1ncnc(N)c1Cl)c1ncc(C(=O)Nc2cc(C(F)(F)F)c(Cl)cn2)s1 + C=CC(=O)N1CCN(c2nc(OCC3CCCN3C)nc3c(F)c(-c4nc(N)cc(C)c4C(F)(F)F)c(Cl)cc23)C(C)C1
viability, T/C [31]: 23%
viability, T/C [32]: 21.9%
viability, T/C [33]: 19.2%
viability, T/C [34]: 25.3%
viability, T/C [35]: 27.4%
viability, T/C [36]: 22.3%
viability, T/C [37]: 18.3%
viability, T/C [38]: 16.7%
viability, T/C [39]: 24.5%
viability, T/C [40]: 19.2%
viability, T/C [41]: 22.8%
viability, T/C [42]: 20.4%
viability, T/C [5]: 17.1%
viability, T/C [6]: 17.3%
viability, T/C [7]: 19.1%
viability, T/C [8]: 19.3%
viability, T/C [9]: 20.1%
viability, T/C [10]: 18%
viability, T/C [11]: 16.3%
viability, T/C [12]: 14.9%
viability, T/C [13]: 15.8%
viability, T/C [14]: 18.3%
viability, T/C [15]: 19%
viability, T/C [16]: 18.5%
viability, T/C [17]: 15.5%
viability, T/C [18]: 16.1%
viability, T/C [19]: 16.2%
viability, T/C [20]: 18.5%
viability, T/C [21]: 22.2%
viability, T/C [22]: 23%
viability, T/C [23]: 16.7%
viability, T/C [24]: 17.4%
viability, T/C [25]: 20.4%
viability, T/C [26]: 17.2%
viability, T/C [27]: 19.8%
viability, T/C [28]: 20.8%
